According to the NIST ThermoML archive (doi:10.1016/j.jct.2011.05.014):

Experiment: excess molar enthalpy (molar enthalpy of mixing); xn = mol fraction of the nth substance listed
Settings: 298.15 K, 101.33 kPa, Liquid, Parr 1455 Solution Calorimeter

O=Cc1ccccc1 [benzaldehyde] + CCCCO
Settings | excess molar enthalpy [kJ/mol]
x1 = 0.0759 | 0.593
x1 = 0.1555 | 1.07
x1 = 0.2374 | 1.429
x1 = 0.3186 | 1.688
x1 = 0.4053 | 1.818
x1 = 0.4922 | 1.87
x1 = 0.5824 | 1.837
x1 = 0.6314 | 1.775
x1 = 0.6755 | 1.698
x1 = 0.7923 | 1.316
x1 = 0.8945 | 0.814
x1 = 0.9245 | 0.612

O=Cc1ccccc1 [benzaldehyde] + CCO
Settings | excess molar enthalpy [kJ/mol]
x1 = 0.0912 | 0.591
x1 = 0.1809 | 0.9484
x1 = 0.2707 | 1.166
x1 = 0.3603 | 1.266
x1 = 0.4503 | 1.3
x1 = 0.5405 | 1.28
x1 = 0.628 | 1.198
x1 = 0.669 | 1.133
x1 = 0.7164 | 1.04
x1 = 0.7714 | 0.913
x1 = 0.8358 | 0.709
x1 = 0.9114 | 0.423

O=Cc1ccccc1 [benzaldehyde] + CCCCCO
Settings | excess molar enthalpy [kJ/mol]
x1 = 0.0899 | 0.636
x1 = 0.1799 | 1.179
x1 = 0.2699 | 1.59
x1 = 0.36 | 1.82
x1 = 0.4499 | 1.94
x1 = 0.54 | 1.95
x1 = 0.6259 | 1.843
x1 = 0.6898 | 1.687
x1 = 0.7523 | 1.494
x1 = 0.8094 | 1.254
x1 = 0.8426 | 1.09
x1 = 0.9015 | 0.771

O=Cc1ccccc1 [benzaldehyde] + CCCO
Settings | excess molar enthalpy [kJ/mol]
x1 = 0.0896 | 0.659
x1 = 0.1797 | 1.101
x1 = 0.2698 | 1.378
x1 = 0.3598 | 1.56
x1 = 0.4822 | 1.636
x1 = 0.5559 | 1.62
x1 = 0.5989 | 1.579
x1 = 0.647 | 1.524
x1 = 0.7017 | 1.417
x1 = 0.7626 | 1.258
x1 = 0.8323 | 0.9916
x1 = 0.9112 | 0.612

O=Cc1ccccc1 [benzaldehyde] + CO
Settings | excess molar enthalpy [kJ/mol]
x1 = 0.0877 | 0.4
x1 = 0.1795 | 0.653
x1 = 0.2704 | 0.83
x1 = 0.3608 | 0.938
x1 = 0.4509 | 0.984
x1 = 0.5406 | 0.978
x1 = 0.6153 | 0.933
x1 = 0.6966 | 0.8296
x1 = 0.7344 | 0.7642
x1 = 0.7803 | 0.6709
x1 = 0.8379 | 0.534
x1 = 0.9092 | 0.326
